Where “and” joins values, the source holds several entries; their conditions need not be identical. Equal values may be shown once. Read-outs that look alike come from different tables or passages of the source.
Key:
MRGPRX4 + RAMP3 [1] = target: T1, MRGPRX4 + RAMP3 (Homo sapiens, UniProt Q96LA9); test: IP1 accumulation, MRGPRX4 coexpressed with RAMP3; type: cell-based; parameters: key: % IP1; unstimulated mock = 0%, fully stimulated MRGPRX4 = 100%; settings: Figure 4c-f; agonist 100µM; X4:ramp3 1:2; MRGPRX4 = 100
T1 construct: expressed in transfected cells; host or cells: HEK293T

MRGPRX4 + RAMP3 [2] = target: T1, MRGPRX4 + RAMP3; test: IP1 accumulation, MRGPRX4 coexpressed with RAMP3; type: cell-based; parameters: key to IP1 Basal / response to agonist, X4:ramp3.I:0.25 / response to agonist, X4:ramp3.I:0.5 / response to agonist, X4:ramp3.I:1: % IP1; unstimulated mock = 0%, fully stimulated MRGPRX4 = 100%; settings: for activation at 100 µM / activation at 20 µM / activation at 4 µM / activation at 0.8 µM / activation at […] / activation at 0.032 µM: 2 h; for EC50: Figure 4a top, individual replicates, read-out: potency (converted)
Protocol: HEK293T cells were transfected with 1 pg/cell of MRGPRX4 DNA, and the amount of DNA was kept constant at 2 pg/cell with pcDNA3.1(+) empty vector, unless otherwise specified. Twenty four hours after transfection, IP1 assay was performed as previously described ([51]). When applicable, cells were treated with 1 μM YM254890 (YM) or different concentrations of U73122 for 1 h prior to addition of agonist or buffer. After incubation for 2 h, HTRF reagents and IP1 calibration standards were added and incubated for 2 h in the dark at room temperature. Time-resolved fluorescence signals were read on the BioTek Synergy NEO-TRF Hybrid multi-mode reader (BioTek Instruments). All data were carried out in three independent experiments with three technical replicate each.
For RAMP DNA titration assay, HEK293T cells were cotransfected with a constant amount of 1 pg/cell of FLAG-MRGPRX4-GFP10-1D4 to which a serial dilution of 1, 0.75, 0.5, 0.25, or 0 pg/cell of each HA-RAMP-OLLAS was added. For a homogenous transfection of MRGPRX4, a master mix of MRGPRX4 DNA was made prior to addition of the RAMP DNA. […]
Data reduction, standard calibration, and transformation of HTRF data were performed as previously described ([51]). Normalized IP1 values were calculated relative to the unstimulated mock-transfected cells (set to 0%) and fully stimulated MRGPRX4 (alone if applicable) (set to 100%).

T1 sequence (Q96LA9 whole entry): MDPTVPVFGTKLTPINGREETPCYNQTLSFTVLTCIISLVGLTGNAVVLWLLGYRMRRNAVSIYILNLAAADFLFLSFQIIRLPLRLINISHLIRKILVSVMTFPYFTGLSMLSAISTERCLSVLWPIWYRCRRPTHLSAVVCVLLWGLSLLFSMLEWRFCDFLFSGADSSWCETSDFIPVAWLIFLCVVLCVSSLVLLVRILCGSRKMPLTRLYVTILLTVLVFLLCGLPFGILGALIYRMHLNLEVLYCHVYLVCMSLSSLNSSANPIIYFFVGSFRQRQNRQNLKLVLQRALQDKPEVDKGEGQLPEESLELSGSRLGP

Question: What does the source list for `CC(C)[C@H]1CC[C@H](C(=O)N[C@H](Cc2ccccc2)C(=O)O)CC1` [Nateglinide]?
Answer: response to agonist, X4:ramp3.I:2 (MRGPRX4 + RAMP3 [1]): 54.9628 and 57.8528; activation at 100 µM (MRGPRX4 + RAMP3 [2]; log [nateglinide] (M) -4, MRGPRX4+RAMP3 0.75pg 1:0.75, Supplementary Figure 5f, read-out: IP1 accumulation (normalized)): 80.5%; activation at 20 µM (MRGPRX4 + RAMP3 [2]; log [nateglinide] (M) -4.69897, MRGPRX4+RAMP3 0.75pg 1:0.75, Supplementary Figure 5f, read-out: IP1 accumulation (normalized)): 75.4%; activation at 4 µM (MRGPRX4 + RAMP3 [2]; log [nateglinide] (M) -5.39794, MRGPRX4+RAMP3 0.5pg 1:0.5, Supplementary Figure 5f, read-out: IP1 accumulation (normalized)): 44.2%; activation at 4 µM (MRGPRX4 + RAMP3 [2]; log [nateglinide] (M) -5.39794, MRGPRX4+RAMP3 0.75pg 1:0.75, Supplementary Figure 5f, read-out: IP1 accumulation (normalized)): 36.8%; activation at 0.8 µM (MRGPRX4 + RAMP3 [2]; log [nateglinide] (M) -6.09691, MRGPRX4+RAMP3 0.5pg 1:0.5, Supplementary Figure 5f, read-out: IP1 accumulation (normalized)): 21.5%; activation at 0.8 µM (MRGPRX4 + RAMP3 [2]; log [nateglinide] (M) -6.09691, MRGPRX4+RAMP3 0.75pg 1:0.75, Supplementary Figure 5f, read-out: IP1 accumulation (normalized)): 14.8%; activation at 0.8 µM (MRGPRX4 + RAMP3 [2]; log [nateglinide] (M) -6.09691, MRGPRX4+RAMP3 1pg 1:1, Supplementary Figure 5f, 5g, read-out: IP1 accumulation (normalized)): 20.8%; activation at […] (MRGPRX4 + RAMP3 [2]; log [nateglinide] (M) -6.79588, MRGPRX4+RAMP3 0.5pg 1:0.5, Supplementary Figure 5f, read-out: IP1 accumulation (normalized)): 13.1%; activation at […] (MRGPRX4 + RAMP3 [2]; log [nateglinide] (M) -6.79588, MRGPRX4+RAMP3 0.75pg 1:0.75, Supplementary Figure 5f, read-out: IP1 accumulation (normalized)): 12%; activation at 0.032 µM (MRGPRX4 + RAMP3 [2]; log [nateglinide] (M) -7.49485, MRGPRX4+RAMP3 0.5pg 1:0.5, Supplementary Figure 5f, read-out: IP1 accumulation (normalized)): 12.9%; activation at 0.032 µM (MRGPRX4 + RAMP3 [2]; log [nateglinide] (M) -7.49485, MRGPRX4+RAMP3 0.75pg 1:0.75, Supplementary Figure 5f, read-out: IP1 accumulation (normalized)): 9.2%; activation at 0.032 µM (MRGPRX4 + RAMP3 [2]; log [nateglinide] (M) -7.49485, MRGPRX4+RAMP3 1pg 1:1, Supplementary Figure 5f, 5g, read-out: IP1 accumulation (normalized)): 13.1%; activation at 100 µM (MRGPRX4 + RAMP3 [2]; ratio MRGPRX4:RAMP3 1:0.25, log [Nateglinide] (M) -4, Fig S3c, read-out: IP1 accumulation): 75.8%; activation at 20 µM (MRGPRX4 + RAMP3 [2]; ratio MRGPRX4:RAMP3 1:0.25, log [Nateglinide] (M) -4.69897, Fig S3c, read-out: IP1 accumulation): 68.5%; activation at 4 µM (MRGPRX4 + RAMP3 [2]; ratio MRGPRX4:RAMP3 1:0.25, log [Nateglinide] (M) -5.39794, Fig S3c, read-out: IP1 accumulation): 41%; activation at 0.8 µM (MRGPRX4 + RAMP3 [2]; ratio MRGPRX4:RAMP3 1:0.25, log [Nateglinide] (M) -6.09691, Fig S3c, read-out: IP1 accumulation): 25.1%; activation at […] (MRGPRX4 + RAMP3 [2]; ratio MRGPRX4:RAMP3 1:0.25, log [Nateglinide] (M) -6.79588, Fig S3c, read-out: IP1 accumulation): 23.1%; activation at 0.032 µM (MRGPRX4 + RAMP3 [2]; ratio MRGPRX4:RAMP3 1:0.25, log [Nateglinide] (M) -7.49485, Fig S3c, read-out: IP1 accumulation): 21%; activation at 100 µM (MRGPRX4 + RAMP3 [2]; ratio MRGPRX4:RAMP3 1:0.5, log [Nateglinide] (M) -4, Fig S3c, read-out: IP1 accumulation): 91%; activation at 20 µM (MRGPRX4 + RAMP3 [2]; ratio MRGPRX4:RAMP3 1:0.5, log [Nateglinide] (M) -4.69897, Fig S3c, read-out: IP1 accumulation): 74.7%; activation at 4 µM (MRGPRX4 + RAMP3 [2]; ratio MRGPRX4:RAMP3 1:0.5, log [Nateglinide] (M) -5.39794, Fig S3c, read-out: IP1 accumulation): 39.2%; activation at 0.8 µM (MRGPRX4 + RAMP3 [2]; ratio MRGPRX4:RAMP3 1:0.5, log [Nateglinide] (M) -6.09691, Fig S3c, read-out: IP1 accumulation): 21.5%; activation at […] (MRGPRX4 + RAMP3 [2]; ratio MRGPRX4:RAMP3 1:0.5, log [Nateglinide] (M) -6.79588, Fig S3c, read-out: IP1 accumulation): 16.2%; activation at 0.032 µM (MRGPRX4 + RAMP3 [2]; ratio MRGPRX4:RAMP3 1:0.5, log [Nateglinide] (M) -7.49485, Fig S3c, read-out: IP1 accumulation): 16.8%; activation at 100 µM (MRGPRX4 + RAMP3 [2]; ratio MRGPRX4:RAMP3 1:1, log [Nateglinide] (M) -4, Fig S3c, read-out: IP1 accumulation): 86.2%; activation at 20 µM (MRGPRX4 + RAMP3 [2]; ratio MRGPRX4:RAMP3 1:1, log [Nateglinide] (M) -4.69897, Fig S3c, read-out: IP1 accumulation): 67.6%; activation at 4 µM (MRGPRX4 + RAMP3 [2]; ratio MRGPRX4:RAMP3 1:1, log [Nateglinide] (M) -5.39794, Fig S3c, read-out: IP1 accumulation): 32.5%; activation at 0.8 µM (MRGPRX4 + RAMP3 [2]; ratio MRGPRX4:RAMP3 1:1, log [Nateglinide] (M) -6.09691, Fig S3c, read-out: IP1 accumulation): 18.7%; activation at […] (MRGPRX4 + RAMP3 [2]; ratio MRGPRX4:RAMP3 1:1, log [Nateglinide] (M) -6.79588, Fig S3c, read-out: IP1 accumulation): 15.5%; activation at 0.032 µM (MRGPRX4 + RAMP3 [2]; ratio MRGPRX4:RAMP3 1:1, log [Nateglinide] (M) -7.49485, Fig S3c, read-out: IP1 accumulation): 13.9%; activation at 100 µM (MRGPRX4 + RAMP3 [2]; ratio MRGPRX4:RAMP3 1:2, log [Nateglinide] (M) -4, Fig S3c, read-out: IP1 accumulation): 83.7%; activation at 4 µM (MRGPRX4 + RAMP3 [2]; ratio MRGPRX4:RAMP3 1:2, log [Nateglinide] (M) -5.39794, Fig S3c, read-out: IP1 accumulation): 28.1%; activation at 0.8 µM (MRGPRX4 + RAMP3 [2]; ratio MRGPRX4:RAMP3 1:2, log [Nateglinide] (M) -6.09691, Fig S3c, read-out: IP1 accumulation): 16.1%; activation at […] (MRGPRX4 + RAMP3 [2]; ratio MRGPRX4:RAMP3 1:2, log [Nateglinide] (M) -6.79588, Fig S3c, read-out: IP1 accumulation): 14.2%; activation at 0.032 µM (MRGPRX4 + RAMP3 [2]; ratio MRGPRX4:RAMP3 1:2, log [Nateglinide] (M) -7.49485, Fig S3c, read-out: IP1 accumulation): 12.5%; Emax (MRGPRX4 + RAMP3 [2]; Figure 4a bottom, DNA ratio MRGPRX4:RAMP3 1:0.5, MRGPRX4 alone = 100, read-out: efficacy): 86.9%; EC50 (MRGPRX4 + RAMP3 [2]; DNA ratio MRGPRX4:RAMP3 1:0.25): 11.8 µM and 9.51 µM and 7.13 µM; EC50 (MRGPRX4 + RAMP3 [2]; DNA ratio MRGPRX4:RAMP3 1:0.5): 11.4 µM and 8.91 µM and 11.9 µM; EC50 (MRGPRX4 + RAMP3 [2]; DNA ratio MRGPRX4:RAMP3 1:0.75): 11.6 µM and 10 µM and 5.04 µM; EC50 (MRGPRX4 + RAMP3 [2]; DNA ratio MRGPRX4:RAMP3 1:1): 11 µM and 13.4 µM and 7.31 µM; response to agonist, X4:ramp3.I:0.25 (MRGPRX4 + RAMP3 [2]; Figure 4c-f, agonist 100µM, X4:ramp3 1:0.25, MRGPRX4 = 100): 78.1524 and 81.0936
